Measured values taken from patent US11000033B2, “Ketone or oxime compound, and herbicide” (NISSAN CHEMICAL CORPORATION, priority 2014, dated 2021).

Legend:
Format in all cases: in vivo
[1] = tested on: Amaranthus retroflexus; test: Test Example 4: herbicidal effect by soil treatment (symbol N); details: for N: Amaranthus retroflexus, herbicidal effect grade: 320 g/ha; for Herbicidal effect grade, N: Amaranthus retroflexus: application herbicide amount 320 g/ha
How it was run: (§1)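 Seeds were sown in sterilized diluvial soil, covered with about 1.5 cm of soil, and the soil surface was sprayed with a water-diluted emulsion of the compound at a predetermined rate. Plants grew in a greenhouse at 25° C. to 30° C.; effects were scored visually 3 weeks after application.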

[2] = tested on: Apera spica-venti; test: Test Example 5: herbicidal effect by foliage application, plastic box (symbol L); details: 320 g/ha, 3 weeks after application
How it was run: (§2)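 Effect is rated 3 weeks after a foliar spray of water-diluted emulsion concentrate at a predetermined herbicide amount. Plants had grown 14 days in a 25° C. to 30° C. greenhouse from seed in sterilized diluvial soil.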

[3] = tested on: Echinochloa crus-galli var. crus-galli; test: Test Example 3: herbicidal effect by foliage application, Wagner pot (symbol H); details: application herbicide amount 320 g/ha; for H (Echinochloa crus-galli var. crus-galli) herbicidal effect grade: Table 24
How it was run: (§3)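 Weeds and rice were sown in alluvial soil under 0.1–0.5 cm of standing water and grown for 14 days in a 25–30 °C greenhouse. An emulsion of the compound, diluted in water to a set dose, was sprayed evenly onto the foliage. Effect was scored against fixed criteria 3 weeks after treatment.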

[4] = tested on: Echinochloa crus-galli var. crus-galli; test: Test Example 5: herbicidal effect by foliage application, plastic box (symbol H); details: 320 g/ha, 3 weeks after application
How it was run: as §2

[5] = tested on: Setaria viridis; test: Test Example 5: herbicidal effect by foliage application, plastic box (symbol G); details: 320 g/ha, 3 weeks after application
How it was run: as §2

[6] = tested on: Veronica persica; test: Test Example 4: herbicidal effect by soil treatment (symbol R); details: for R: Veronica persica, herbicidal effect grade: 320 g/ha; for Herbicidal effect grade, R: Veronica persica: application herbicide amount 320 g/ha
How it was run: as §1

[7] = tested on: transplanted rice plant; test: Test Example 1: effect on crop, application before weed generation in submerged conditions (symbol a); details: application herbicide amount 320 g/ha
How it was run: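 Alluvial soil pots flooded to 4 cm water, sown with Echinochloa oryzacola, Scirpus juncoides and Monochoria vaginalis, then transplanted with 2.5 leaf stage rice seedlings; pre-emergence application. Greenhouse 25° C. to 30° C.; scored 0–5 by herbicidal ratio 3 weeks after application.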

[8] = tested on: soybean; test: Test Example 5: effect on crop by foliage application, plastic box (symbol d); details: 320 g/ha, 3 weeks after application
How it was run: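 Seeds were sown in spots in sterilized diluvial soil held in a plastic box 21 cm × 13 cm × 7 cm deep, covered with about 1.5 cm of soil, and grown in a greenhouse at 25° C. to 30° C.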

[9] = tested on: soybean; test: Test Example 4: effect on crop by soil treatment (symbol d); details: for d: soybean, effect grade on crop: 320 g/ha; for Effect on crop grade, d: soybean: application herbicide amount 320 g/ha
How it was run: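 Steps: fill box with sterilized diluvial soil; sow seed spot-like; cover with ~1.5 cm soil; grow in greenhouse (25° C. to 30° C.).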

[10] = tested on: Abutilon theophrasti; test: Test Example 5: herbicidal effect by foliage application, plastic box (symbol M); details: 320 g/ha, 3 weeks after application
How it was run: as §2

[11] = tested on: Leptochloa chinensis; test: Test Example 3: herbicidal effect by foliage application, Wagner pot (symbol D); details: application herbicide amount 320 g/ha; for D (Leptochloa chinensis) herbicidal effect grade: Table 24
How it was run: as §3

[12] = tested on: Apera spica-venti; test: Test Example 4: herbicidal effect by soil treatment (symbol L); details: for L: Apera spica-venti, herbicidal effect grade: 320 g/ha; for Herbicidal effect grade, L: Apera spica-venti: application herbicide amount 320 g/ha
How it was run: as §1

[13] = tested on: Stellaria media; test: Test Example 4: herbicidal effect by soil treatment (symbol P); details: for P: Stellaria media, herbicidal effect grade: 320 g/ha; for Herbicidal effect grade, P: Stellaria media: application herbicide amount 320 g/ha
How it was run: as §1

[14] = tested on: Alopecurus myosuroides; test: Test Example 4: herbicidal effect by soil treatment (symbol J); details: for J: Alopecurus myosuroides, herbicidal effect grade: 320 g/ha; for Herbicidal effect grade, J: Alopecurus myosuroides: application herbicide amount 320 g/ha
How it was run: as §1

[15] = tested on: Cyperus difformis; test: Test Example 3: herbicidal effect by foliage application, Wagner pot (symbol E); details: application herbicide amount 320 g/ha; for E herbicidal effect grade: Table 24
How it was run: as §3

| Compound | N: Amaranthus retroflexus, herbicidal effect grade [1] | L: Apera spica-venti, herbicidal effect (criteria 0-5) [2] | herbicidal effect on H (Echinochloa crus-galli var. crus-galli), grade 0-5 [3] | H: Echinochloa crus-galli var. crus-galli, herbicidal effect (criteria 0-5) [4] | G: Setaria viridis, herbicidal effect (criteria 0-5) [5] | Herbicidal effect grade, N: Amaranthus retroflexus [1] | L: Apera spica-venti, herbicidal effect grade [2] | H (Echinochloa crus-galli var. crus-galli) herbicidal effect grade [3] | H: Echinochloa crus-galli var. crus-galli, herbicidal effect grade [4] | G: Setaria viridis, herbicidal effect grade [5] | Herbicidal effect grade, R: Veronica persica [6] | a (transplanted rice plant) effect on crop grade [7] | d: soybean, effect on crop grade [8] | Effect on crop grade, d: soybean [9] | M: Abutilon theophrasti, herbicidal effect grade [10] | D (Leptochloa chinensis) herbicidal effect grade [11] | Herbicidal effect grade, L: Apera spica-venti [12] | Herbicidal effect grade, P: Stellaria media [13] | Herbicidal effect grade, J: Alopecurus myosuroides [14] | E herbicidal effect grade [15] | further results |
| --- | --- | --- | --- | --- | --- | --- | --- | --- | --- | --- | --- | --- | --- | --- | --- | --- | --- | --- | --- | --- | --- |
| CON=C(C)CC1CC(OC(=O)N(C)CCCCCl)=C(c2c(C)cc(C)cc2C)C1=O (stereo not drawn) [1-126] | 0 (Herbicidal ratio of 5% or lower (almost no effect)) | 3 (Herbicidal ratio of 40% or higher and lower than 70%) | 3 (Herbicidal ratio of 40% or higher and lower than 70%) | 4 (Herbicidal ratio of 70% or higher and lower than 90%) | 4 (Herbicidal ratio of 70% or higher and lower than 90%) | – | – | – | – | – | – | – | – | – | – | – | – | – | – | – | R: Veronica persica, herbicidal effect grade [6]: 0 (Herbicidal ratio of 5% or lower (almost no effect)); Effect grade on crop, a: transplanted rice plant [7]: 3 (Herbicidal ratio of 40% or higher and lower than 70%); d: soybean, effect on crop (criteria 0-5) [8]: 0 (Herbicidal ratio of 5% or lower (almost no effect)); d: soybean, effect grade on crop [9]: 0 (Herbicidal ratio of 5% or lower (almost no effect)); M: Abutilon theophrasti, herbicidal effect (criteria 0-5) [10]: 0 (Herbicidal ratio of 5% or lower (almost no effect)); herbicidal effect on D (Leptochloa chinensis), grade 0-5 [11]: 5 (Herbicidal ratio of 90% or more (almost completely withered)); L: Apera spica-venti, herbicidal effect grade [12]: 0 (Herbicidal ratio of 5% or lower (almost no effect)); P: Stellaria media, herbicidal effect grade [13]: 0 (Herbicidal ratio of 5% or lower (almost no effect)); J: Alopecurus myosuroides, herbicidal effect grade [14]: 3 (Herbicidal ratio of 40% or higher and lower than 70%); herbicidal effect on E, grade 0-5 [15]: 2 (Herbicidal ratio of 20% or higher and lower than 40%) |
| COCCON=C(CC1CC(O)=C(c2c(C)cc(Br)cc2C)C1=O)C1CC1 (stereo not drawn) [9-019] | – | – | – | – | – | 0 (Herbicidal ratio of 5% or lower (almost no effect)) | 1 (Herbicidal ratio of 5% or higher and lower than 20%) | 5 (Herbicidal ratio of 90% or more (almost completely withered)) | 5 (Herbicidal ratio of 90% or more (almost completely withered)) | 5 (Herbicidal ratio of 90% or more (almost completely withered)) | 0 (Herbicidal ratio of 5% or lower (almost no effect)) | 4 (Herbicidal ratio of 70% or higher and lower than 90%) | 0 (Herbicidal ratio of 5% or lower (almost no effect)) | 0 (Herbicidal ratio of 5% or lower (almost no effect)) | 0 (Herbicidal ratio of 5% or lower (almost no effect)) | 5 (Herbicidal ratio of 90% or more (almost completely withered)) | 0 (Herbicidal ratio of 5% or lower (almost no effect)) | 0 (Herbicidal ratio of 5% or lower (almost no effect)) | 5 (Herbicidal ratio of 90% or more (almost completely withered)) | 4 (Herbicidal ratio of 70% or higher and lower than 90%) | – |
| CC#Cc1cc(C)c(C2=C(O)CC(CC(=NOCC(F)(F)F)C(C)C)C2=O)c(C)c1 (stereo not drawn) [9-015] | – | – | – | – | – | 0 (Herbicidal ratio of 5% or lower (almost no effect)) | 5 (Herbicidal ratio of 90% or more (almost completely withered)) | 5 (Herbicidal ratio of 90% or more (almost completely withered)) | 5 (Herbicidal ratio of 90% or more (almost completely withered)) | 5 (Herbicidal ratio of 90% or more (almost completely withered)) | 0 (Herbicidal ratio of 5% or lower (almost no effect)) | 5 (Herbicidal ratio of 90% or more (almost completely withered)) | 0 (Herbicidal ratio of 5% or lower (almost no effect)) | 0 (Herbicidal ratio of 5% or lower (almost no effect)) | 0 (Herbicidal ratio of 5% or lower (almost no effect)) | 5 (Herbicidal ratio of 90% or more (almost completely withered)) | 5 (Herbicidal ratio of 90% or more (almost completely withered)) | 0 (Herbicidal ratio of 5% or lower (almost no effect)) | 5 (Herbicidal ratio of 90% or more (almost completely withered)) | 5 (Herbicidal ratio of 90% or more (almost completely withered)) | – |
| Cc1cc(-n2cc(Cl)cn2)cc(C)c1C1=C(O)CC(CC(=NOCC(F)(F)F)C(C)C)C1=O (stereo not drawn) [9-014] | – | – | – | – | – | 0 (Herbicidal ratio of 5% or lower (almost no effect)) | 3 (Herbicidal ratio of 40% or higher and lower than 70%) | 5 (Herbicidal ratio of 90% or more (almost completely withered)) | 5 (Herbicidal ratio of 90% or more (almost completely withered)) | 5 (Herbicidal ratio of 90% or more (almost completely withered)) | 0 (Herbicidal ratio of 5% or lower (almost no effect)) | 5 (Herbicidal ratio of 90% or more (almost completely withered)) | 0 (Herbicidal ratio of 5% or lower (almost no effect)) | 0 (Herbicidal ratio of 5% or lower (almost no effect)) | 0 (Herbicidal ratio of 5% or lower (almost no effect)) | 5 (Herbicidal ratio of 90% or more (almost completely withered)) | 0 (Herbicidal ratio of 5% or lower (almost no effect)) | 0 (Herbicidal ratio of 5% or lower (almost no effect)) | 0 (Herbicidal ratio of 5% or lower (almost no effect)) | 5 (Herbicidal ratio of 90% or more (almost completely withered)) | – |
| Cc1cc(C)c(C2=C(O)CC(CC(=NOCC(F)(F)F)C3CC3)C2=O)c(C)c1 (stereo not drawn) [1-131] | 0 (Herbicidal ratio of 5% or lower (almost no effect)) | 5 (Herbicidal ratio of 90% or more (almost completely withered)) | 5 (Herbicidal ratio of 90% or more (almost completely withered)) | 4 (Herbicidal ratio of 70% or higher and lower than 90%) | 5 (Herbicidal ratio of 90% or more (almost completely withered)) | – | – | – | – | – | – | – | – | – | – | – | – | – | – | – | R: Veronica persica, herbicidal effect grade [6]: 3 (Herbicidal ratio of 40% or higher and lower than 70%); Effect grade on crop, a: transplanted rice plant [7]: 4 (Herbicidal ratio of 70% or higher and lower than 90%); d: soybean, effect on crop (criteria 0-5) [8]: 0 (Herbicidal ratio of 5% or lower (almost no effect)); d: soybean, effect grade on crop [9]: 0 (Herbicidal ratio of 5% or lower (almost no effect)); M: Abutilon theophrasti, herbicidal effect (criteria 0-5) [10]: 0 (Herbicidal ratio of 5% or lower (almost no effect)); herbicidal effect on D (Leptochloa chinensis), grade 0-5 [11]: 5 (Herbicidal ratio of 90% or more (almost completely withered)); L: Apera spica-venti, herbicidal effect grade [12]: 5 (Herbicidal ratio of 90% or more (almost completely withered)); P: Stellaria media, herbicidal effect grade [13]: 0 (Herbicidal ratio of 5% or lower (almost no effect)); J: Alopecurus myosuroides, herbicidal effect grade [14]: 5 (Herbicidal ratio of 90% or more (almost completely withered)); herbicidal effect on E, grade 0-5 [15]: 5 (Herbicidal ratio of 90% or more (almost completely withered)) |
